Measured values: PubChem BioAssay (NCI)
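Cells were grown in 96-well plates and exposed to each compound for 48 hours at five concentrations; endpoints were interpolated linearly between bracketing concentrations, or set to the highest concentration if not reached. GI50 = concentration required for 50% inhibition of growth. TGI is the concentration that stops growth completely.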

Columns and labels:
Experiment in all cases: DTP human tumour cell line panel, 48 h
MALME-3M melanoma = tested on: MALME-3M melanoma
RPMI-8226 leukemia = tested on: RPMI-8226 leukemia
CAKI-1 renal = tested on: CAKI-1 renal
NCI-H23 lung = tested on: NCI-H23 lung
NCI-H226 lung = tested on: NCI-H226 lung
ACHN renal = tested on: ACHN renal
LOX IMVI melanoma = tested on: LOX IMVI melanoma
HT29 colon = tested on: HT29 colon
OVCAR-5 ovarian = tested on: OVCAR-5 ovarian
UACC-257 melanoma = tested on: UACC-257 melanoma

Row | Compound | TGI (MALME-3M melanoma) [µM] | TGI (RPMI-8226 leukemia) [µM] | TGI (CAKI-1 renal) [µM] | TGI (NCI-H23 lung) [µM] | TGI (NCI-H226 lung) [µM] | TGI (ACHN renal) [µM] | TGI (LOX IMVI melanoma) [µM] | TGI (HT29 colon) [µM] | TGI (OVCAR-5 ovarian) [µM] | TGI (UACC-257 melanoma) [µM] | GI50 (NCI-H23 lung) [µM] | GI50 (MALME-3M melanoma) [µM] | GI50 (RPMI-8226 leukemia) [µM] | GI50 (CAKI-1 renal) [µM] | GI50 (NCI-H226 lung) [µM] | GI50 (ACHN renal) [µM] | GI50 (LOX IMVI melanoma) [µM] | GI50 (HT29 colon) [µM] | GI50 (OVCAR-5 ovarian) [µM] | GI50 (UACC-257 melanoma) [µM]
1 | CC1(C)COC(c2cccc(C3=NC(C)(C)CO3)c2Br)=N1 | > 100 | > 100 | > 100 | > 100 | > 100 | > 100 | > 100 | > 100 | > 100 | > 100 |  |  |  |  |  |  |  |  |  | 
2 | CC1(O)C=CC2CCC1C2O (stereo unspecified) | > 100 | 53.5 | > 100 | > 100 | > 100 | > 100 | 35.9 | > 100 | > 100 | > 100 |  |  |  |  |  |  |  |  |  | 
3 | C/C(=N\NC(N)=O)C(CN1CCCCC1)C(c1ccccc1)c1c(O)c2ccccc2oc1=O (stereo unspecified) | > 100 | > 100 | > 100 | > 100 | > 100 | > 100 | > 100 | > 100 | > 100 | > 100 | > 100 |  |  |  |  |  |  |  |  | 
4 | S=C(N/N=C\C=N/NC(=S)N1CCCCCC1)N1CCCCCC1 | > 93.7 | > 100 | > 100 | > 100 | > 100 | > 100 | > 100 | > 100 | > 100 | > 100 |  |  |  |  |  |  |  |  |  | 
5 | Nc1nc(Cl)cc(N=Nc2ccccc2)n1 | > 100 | > 100 | > 100 | 55.5 | > 100 | 97.2 | 67 | > 100 | > 100 | > 100 |  |  |  |  |  |  |  |  |  | 
6 | CC(=O)O[C@H]1C#C/C=C\C#CC[C@@H]2C(=O)N(C(=O)OC(C)(C)C)[C@@H]12 | > 100 | > 75.8 | > 54 | > 69 | 84.8 | 28.8 | 45.3 | > 100 | > 100 | > 100 |  |  |  |  |  |  |  |  |  | 
7 | OC1CCCC1C(O)(C(F)(F)F)C(F)(F)F (stereo unspecified) | > 100 | > 100 | > 100 | > 100 | > 100 | > 100 | > 100 | > 100 | > 100 | > 100 |  |  |  |  |  |  |  |  |  | 
8 | Cn1c(=O)c2c(-c3ccccc3)onc2n(C)c1=O | > 100 | 57.6 | > 100 | 41.6 | > 100 | > 100 | 70.1 | > 100 | > 100 | > 100 |  |  |  |  |  |  |  |  |  | 
9 | Cc1ccc(S(=O)(=O)n2cncc2CO)cc1 | > 100 | > 100 | > 100 | > 100 | > 100 | > 100 | > 100 | > 100 | > 100 | > 100 |  |  |  |  |  |  |  |  |  | 
10 | Cc1cc(Cc2c(F)c(F)c(Cc3cc(C)no3)c(F)c2F)on1 | > 100 | > 100 | 24.6 | > 100 | > 100 | > 100 | > 100 | > 100 | > 100 | > 100 |  |  |  |  |  |  |  |  |  | 
11 | Cc1ccc(C(=O)N(C(C)C)C(C)C)cc1N=NN(C)C | > 100 | > 100 | > 100 | > 100 | > 100 | > 100 | > 31.6 | > 100 | > 100 | > 100 |  |  |  |  |  |  |  |  |  | 
12 | N#Cc1c(NC(=O)c2ccccc2)sc2c1CCC(=O)C2 | 3.92 | 1.32 | 1.86 | 6.99 | 12.1 | 2.3 | 5.97 | > 100 | 4.77 | 5.49 | 0.768 | 1.65 | 0.305 | 0.38 | 2.75 | 0.906 | 0.821 | 0.747 | 1.25 | 1.59
13 | CC(CCC(=O)O)[C@H]1CCC2[C@H]3C(CC[C@@]21C)[C@@]1(C)CCC(O)C[C@H]1C[C@@H]3O (stereo partly specified) | > 100 | > 100 | > 100 | > 100 | > 100 | > 100 | > 100 | > 100 | > 100 | > 100 |  |  |  |  |  |  |  |  |  | 
14 | Cc1cc(C)c(S(=O)(=O)N(CCCCN)OCCCN)c(C)c1 | 36.3 | 26 | 31.3 | 43.2 | 31.8 | 37 | 31.9 | 27.8 | 35.6 | 30.2 |  |  |  |  |  |  |  |  |  | 
15 | O=C(O)C(CCc1ccccn1)c1ccccc1 (stereo unspecified) | > 100 | > 100 | > 100 | > 100 | > 100 | > 100 | > 100 | > 100 | > 100 | > 100 |  |  |  |  |  |  |  |  |  | 
16 | Cc1csc2c1C(=O)c1ccsc1C2=O | 1.07 | 20.1 | 34 | 2.5 | 23.4 | 10.7 | 3.37 | 7.33 | 3.46 | 2.88 |  |  |  |  |  |  |  |  |  | 
17 | CC[C@]12C=CCN3CCC4(c5cc(N=Nc6ccccc6)c(OC)cc5N(C)[C@H]4[C@@](O)(C(=O)OC)[C@@H]1OC(C)=O)[C@@H]32 (stereo partly specified) | 33.5 | 59.3 | 69.8 | 30.5 | 51.5 | 30.1 | 33 | 33.8 | 41.1 | 34.9 |  |  |  |  |  |  |  |  |  | 
